From patent US20230339970A1, “CASEIN KINASE 1 DELTA MODULATORS” (priority 2020, published 2023) come the findings set out here.

The target in one assay is T1, human CSNK1D (Homo sapiens, UniProt P48730).
T1 construct: expressed in transfected cells
Nature of the assay: Whole Cell nBRET CSNK1D Binding Assay. To be noted: living CHO cells stably expressing human CSNK1D tagged with nanoluciferase; NanoBret tracer 130 nM; 2 hours at 37 C.

Assay [1] deals with T2, human recombinant GST cleaved CSNK1D (Homo sapiens, UniProt P48730).
T2 construct: GST (cleaved yes); purchased University of Dundee clone DU 19064
Nature of the assay: Purified Enzyme Assay (ADP-Glo CSNK1D Kinase Assay). Format: biochemical. To be noted: 2 nM CSNK1D; peptide substrate 150 μM; ATP 20 μM; 45 minutes at room temperature. The essentials: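 Percent activity derived from ADP-Glo quantification of ADP produced. Reactions: compound dose-response with human recombinant GST-cleaved CSNK1D, ATP and substrate peptide PLSRTL-pS-VASLPGL, incubated 45 min at room temperature.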
(In general: ADP-Glo turns the ADP formed in a reaction into a luminescent signal.)

Structures are written as SMILES.

T2 sequence (P48730 whole entry): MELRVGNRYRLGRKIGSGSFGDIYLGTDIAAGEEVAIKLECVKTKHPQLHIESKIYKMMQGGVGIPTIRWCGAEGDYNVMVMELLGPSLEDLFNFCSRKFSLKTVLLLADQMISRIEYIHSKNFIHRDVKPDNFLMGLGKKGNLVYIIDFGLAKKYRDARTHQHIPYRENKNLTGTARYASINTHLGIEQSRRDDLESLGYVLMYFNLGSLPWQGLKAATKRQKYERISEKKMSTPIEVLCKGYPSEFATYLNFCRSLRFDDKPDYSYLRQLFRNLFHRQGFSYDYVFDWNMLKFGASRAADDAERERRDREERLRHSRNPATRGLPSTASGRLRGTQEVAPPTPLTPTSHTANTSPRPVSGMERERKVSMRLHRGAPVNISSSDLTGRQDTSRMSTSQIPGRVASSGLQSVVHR
T1 sequence (P48730 whole entry): as above

`Cc1cc(-c2c(-c3ccc(F)cn3)nn3c2O[C@H](C)CC3)c2cn[nH]c2n1` (single isomer, unassigned) [Example 201, (*R)-2-(5-Fluoro-2-pyridyl)-5-methyl-3-(6-methyl-1H-pyrazolo[3,4-b]pyridin-4-yl)-6,7-dihydro-5H-pyrazolo[5,1-b][1,3]oxazine]: the figures for the IC50 (at human CSNK1D; in assay [1]) were 246 nM and 17 nM, respectively.
On the same counts, the results for `C[C@@H]1C[C@H](C)Oc2c(-c3ccnc4[nH]ncc34)c(-c3ccc(F)cn3)nn21` (single isomer, unassigned) [Example 202, (5*S,7*R)-2-(5-Fluoro-2-pyridyl)-5,7-dimethyl-3-(1H-pyrazolo[3,4-b]pyridin-4-yl)-6,7-dihydro-5H-pyrazolo[5,1-b][1,3]oxazine] are 198 nM and 10 nM.
For `C[C@@H]1C[C@H](C)n2nc(-c3ccc(F)cn3)c(-c3ccnc4[nH]ncc34)c2O1` (single isomer, unassigned) [Example 203, (5*R,7*S)-2-(5-Fluoro-2-pyridyl)-5,7-dimethyl-3-(1H-pyrazolo[3,4-b]pyridin-4-yl)-6,7-dihydro-5H-pyrazolo[5,1-b][1,3]oxazine] the same measures were 2890 nM and 34 nM.
For `C[C@@H]1C[C@@H](C)n2nc(-c3ccc(F)cn3)c(-c3ccnc4[nH]ncc34)c2O1` (single isomer, unassigned) [Example 204, (5*R,7*R)-2-(S-Fluoropyridin-2-yl)-5,7-dimethyl-3-(1H-pyrazolo[3,4-b]pyridin-4-yl)-6,7-dihydro-5H-pyrazolo[5,1-b][1,3]oxazine] the same measures were 305 nM and 13 nM.
Turning to `C[C@H]1C[C@H](C)n2nc(-c3ccc(F)cn3)c(-c3ccnc4[nH]ncc34)c2O1` (single isomer, unassigned) [Example 205, (5*S,7*S)-2-(5-Fluoropyridin-2-yl)-5,7-dimethyl-3-(1H-pyrazolo[3,4-b]pyridin-4-yl)-6,7-dihydro-5H-pyrazolo[5,1-b][1,3]oxazine], the concentration for half-maximal inhibition (IC50) at human CSNK1D was determined as 171 nM; in assay [1], 5 nM.
For `Cc1cc(-c2c(-c3ccc(F)cn3)nn3c2O[C@@H](C)C[C@H]3C)c2cn[nH]c2n1` (single isomer, unassigned) [Example 206, (5*S,7*R)-2-(S-Fluoro-2-pyridyl)-5,7-dimethyl-3-(6-methyl-1H-pyrazolo[3,4-b]pyridin-4-yl)-6,7-dihydro-5H-pyrazolo[5,1-b][1,3]oxazine] the same measures were 249 nM and 14 nM.
On the same counts, the results for `Cc1cc(-c2c(-c3ccc(F)cn3)nn3c2OC(C)CC3C)c2cn[nH]c2n1` (single isomer, unassigned) [Example 207, (5*R,7*S)-2-(5-Fluoro-2-pyridyl)-5,7-dimethyl-3-(6-methyl-H-pyrazolo[3,4-b]pyridin-4-yl)-6,7-dihydro-5H-pyrazolo[5,1-b][1,3]oxazine] are 1770 nM and 51 nM.
For `Cc1cc(-c2c(-c3ccc(F)cn3)nn3c2O[C@H](C)C[C@H]3C)c2cn[nH]c2n1` (single isomer, unassigned) [Example 208, (5*R,7*R)-2-(5-Fluoro-2-pyridyl)-5,7-dimethyl-3-(6-methyl-1H-pyrazolo[3,4-b]pyridin-4-yl)-6,7-dihydro-5H-pyrazolo[5,1-b][1,3]oxazine] the same measures were 821 nM and 26 nM.
Turning to `Cc1cc(-c2c(-c3ccc(F)cn3)nn3c2O[C@@H](C)C[C@@H]3C)c2cn[nH]c2n1` (single isomer, unassigned) [Example 209, (5*S,7*S)-2-(5-Fluoro-2-pyridyl)-5,7-dimethyl-3-(6-methyl-1H-pyrazolo[3,4-b]pyridin-4-yl)-6,7-dihydro-5H-pyrazolo[5,1-b][1,3]oxazine], the IC50 came to 165 nM on human CSNK1D and 8 nM in assay [1].
For `Fc1ccc(-c2nn3c(c2-c2ccnc4[nH]ncc24)CC2(C3)CC2(F)F)cc1` (single isomer, unassigned) [Example 250, (*S)-1′,1′-Difluoro-2-(4-fluorophenyl)-3-(1H-pyrazolo[3,4-b]pyridin-4-yl)spiro[4,6-dihydropyrrolo[1,2-b]pyrazole-5,2′-cyclopropane]] the same measures were 5 nM and 1 nM.
On the same counts, the results for `Fc1ccc(-c2nn3c(c2-c2ccnc4[nH]ncc24)CC2(C3)CC2(F)F)cc1` (single isomer, unassigned) [Example 251, (*R)-1′,1′-Difluoro-2-(4-fluorophenyl)-3-(1H-pyrazolo[3,4-b]pyridin-4-yl)spiro[4,6-dihydropyrrolo[1,2-b]pyrazole-5,2′-cyclopropane]] are 185 nM and 26 nM.
On the same counts, the results for `Cc1cc(-c2c(-c3ccc(F)cc3)nn3c2C[C@@]2(C3)CC2(F)F)c2cn[nH]c2n1` (single isomer, unassigned) [Example 252, (*S)-1′,1′-Difluoro-2-(4-fluorophenyl)-3-(6-methyl-1H-pyrazolo[3,4-b]pyridin-4-yl)spiro[4,6-dihydropyrrolo[1,2-b]pyrazole-5,2′-cyclopropane]] are 3 nM and 2 nM.
As for `Cc1cc(-c2c(-c3ccc(F)cc3)nn3c2CC2(C3)CC2(F)F)c2cn[nH]c2n1` (single isomer, unassigned) [Example 253, (*R)-1′.1′-Difluoro-2-(4-fluorophenyl)-3-(6-methyl-1H-pyrazolo[3,4-b]pyridin-4-yl)spiro[4,6-dihydropyrrolo[1,2-b]pyrazole-5,2′-cyclopropane]], the IC50 at human CSNK1D is 279 nM; in assay [1], 21 nM.
Take `Fc1ccc(-c2nn3c(c2-c2ccnc4[nH]ncc24)CC2(C3)CC2(F)F)nc1` (single isomer, unassigned) [Example 254, (*S)-1′1l′-Difluoro-2-(5-fluoro-2-pyridyl)-3-(1H-pyrazolo[3,4-b]pyridin-4-yl)spiro[4,6-dihydropyrrolo[1,2-b]pyrazole-5,2′-cyclopropane]]: the IC50 on human CSNK1D was found to be 85 nM; in assay [1] it was 4 nM.
On the same counts, the results for `Fc1ccc(-c2nn3c(c2-c2ccnc4[nH]ncc24)CC2(C3)CC2(F)F)nc1` (single isomer, unassigned) [Example 255, (*R)-1′.1′-Difluoro-2-(5-fluoro-2-pyridyl)-3-(1H-pyrazolo[3,4-b]pyridin-4-yl)spiro[4,6-dihydropyrrolo[1,2-b]pyrazole-5,2′-cyclopropane]] are 1950 nM and 66 nM.
On to `Fc1ccc(-c2nn3c(c2-c2ccnc4[nH]nc(Cl)c24)CC2(C3)CC2(F)F)nc1` (single isomer, unassigned) [Example 256, (*S)-3-(3-Chloro-1H-pyrazolo[3,4-b]pyridin-4-yl)-1′,1′-difluoro-2-(5-fluoro-2-pyridyl)spiro[4,6-dihydropyrrolo[1,2-b]pyrazole-5,2′-cyclopropane]], for which the IC50 came to 117 nM on human CSNK1D and 12 nM in assay [1].
With `Fc1ccc(-c2nn3c(c2-c2ccnc4[nH]nc(Cl)c24)CC2(C3)CC2(F)F)nc1` (single isomer, unassigned) [Example 257, (*R)-3-(3-Chloro-1H-pyrazolo[3,4-b]pyridin-4-yl)-1′,1′-difluoro-2-(5-fluoro-2-pyridyl)spiro[4,6-dihydropyrrolo[1,2-b]pyrazole-5,2′-cyclopropane]], the figures for the half-maximal inhibitory concentration (IC50) (on human CSNK1D; in assay [1]) were 10800 nM and 197 nM, respectively.

Usually IC50 stands for the point on the concentration scale where inhibition reaches its midpoint.
